The values that follow are results of earlier work, collected in patent US20260283943A1, “STARCHLESS MOLDING PROCESS FOR ORAL PRODUCTS” (NICOVENTURES TRADING LIMITED, priority 2023, published 2026).

Molecules are shown by their SMILES.

The conditions of series [1]: isolated substance.

Take `COC(=O)/C=C/C(C)=C\C=C\C(C)=C\C=C\C=C(C)\C=C\C=C(C)\C=C\C(=O)O` [bixin, (2E,4E,6E,8E,10E,12E,14E,16Z,18E)-20-methoxy-4,8,13,17-tetramethyl-20-oxoicosa-2,4,6,8,10,12,14,16,18-nonaenoic acid]: the Solubility in water result is recorded as “insoluble in water”. The Chemical stability result in series [1] was “chemically unstable when isolated”.
Regarding `C=C(C)[C@@H]1CCC(C)=C[C@H]1c1c(O)cc(CCCCC)cc1O` [CBD, cannabidiol, reference compound], the Solubility in water entry was “insoluble in an aqueous environment”.
